Patent US12122804B2, “γ-aminobutyric acid modulator crystal form X, preparation method and application thereof” (SHENZHEN RENTAI […]., priority 2019, dated 2024)

Tests used:
[1] = assessment of data of WO2018039378A1: crystal transformation, XRPD at different temperatures; cited from earlier work
[2] = High-humidity stability of the crystal form (XRPD comparison); type: physicochemical; settings: 92.5% RH, 25° C., 5 days and 10 days, FIG. 16
Description: (§1) The crystal form X prepared in Example 5 is tested as follows.
(4) High-humidity stability: the test sample is placed in an environment having a humidity of 92.5% RH and a temperature of 25° C. for 5 days and 10 days, respectively, to test the stability of the crystal form.

[3] = Light stability of the crystal form (XRPD comparison); type: physicochemical; settings: 25° C., 4500 Lux, 5 days and 10 days, FIG. 13
Description: as §1
(1) Light stability: the test sample is placed in an environment having a temperature of 25° C. and a light condition of 4500 Lux for 5 days and 10 days, respectively, to test the stability of the crystal form.

[4] = Comparison of crystal form X with crystal form K (XRPD, FIG. 17; stability); type: physicochemical
[5] = Accelerated stability of the crystal form (XRPD comparison); type: physicochemical; settings: 75% RH, 40° C., 5 days and 10 days, FIG. 15
Description: as §1
(3) Accelerated stability: the test sample is placed in an environment having a humidity of 75% RH and a temperature of 40° C. for 5 days and 10 days, respectively, to test the stability of the crystal form.

[6] = High-temperature stability of the crystal form (XRPD comparison); type: physicochemical; settings: 60° C., 5 days and 10 days, FIG. 14
Description: as §1
(2) High-temperature stability: the test sample is placed at a temperature of 60° C. for 5 days and 10 days, respectively, to test the stability of the crystal form.

SMILES: C[C@@]1(O)CC[C@H]2[C@H](CC[C@@H]3[C@@H]2CC[C@]2(C)[C@@H](C(=O)Cn4cc(C#N)cn4)CC[C@@H]32)C1 [crystal form A, 3α-hydroxy-3β-methyl-21-(4-cyano-1H-pyrazol-1′-yl)-19-nor-5β-pregnan-20-one]
- Crystal form stability (suitability as medicinal crystal form) [1]: unstable

SMILES: C[C@@]1(O)CC[C@H]2[C@H](CC[C@@H]3[C@@H]2CC[C@]2(C)[C@@H](C(=O)Cn4cc(C#N)cn4)CC[C@@H]32)C1 [crystal form X, 3α-hydroxy-3β-methyl-21-(4-cyano-1H-pyrazol-1′-yl)-19-nor-5β-pregnan-20-one]
- High-humidity stability of the crystal form [2]: good high-humidity stability
- Light stability of the crystal form [3]: good light stability
- Stability relative to crystal form K [4]: better stability than the crystal form K
- Accelerated stability of the crystal form [5]: good accelerated stability
- High-temperature stability of the crystal form [6]: good high-temperature stability
